Like-named read-outs stand apart in the source and are kept apart here.
How the values were obtained:
[1] = tested on: p100/p52; experiment: p100/p52 Western blot (WB) assay; assay type: cell-based, human; conditions: PBMC cells from healthy donors, 24 hrs, read-out: p100/p52 Western Blot (WB) EC50
Description: Cell cultures were set up to evaluate several SMACm compounds. Frozen PBMC cells from healthy donors were thawed and plated in 2 ml deepwell plates at 2×10^6 cells/ml. Serial dilutions of each compound was carried out as a 7 fold 1:6 dilution with the starting final dose of 1000 nM. Cells were then combined with compound and place at 37° for 24 hrs. The following day cells were pelleted and placed at −80 until lysis.
In preparation for cell lysis, the frozen cell pellets and an aliquot of NP40 Cell Lysis Buffer (Invitrogen, Part #FNN0021), as well as an aliquot of 10× Protease Inhibitor Cocktail (Sigma, Part #P-2714) are thawed on ice. Once thawed, the complete lysis buffer is prepared by adding 10% final volume PI cocktail to the NP40 buffer and then adding in sufficient volume of 0.1 M PMSF (Sigma, Part #93482) and 1 M DTT (Sigma, Part #43816) to create a final concentration of 1 mM each in the complete lysis buffer. Cell lysis is then carried out by resuspending each cell pellet in 30 μL per 10^6 cells then incubating on ice for 30 minutes with vigorous vortexing every 10 minutes. The lysed cells are then centrifuged at 13K RPM for 10 minutes at 4° C. in a refrigerated microcentrifuge. The supernatants (lysates) are then transferred into new microcentrifuge tubes and either stored at −80° or utilized immediately for protein concentration and Western blot analysis.
Protein concentration for each lysate is determined using a detergent compatible Bradford assay (Pierce, Part #23246) following the manufacturer's microplate instructions.
Capillary Western analysis were performed using the ProteinSimple Jess System. A total of 1 ug of cell lysate was prepared according to the provided protocol supplied by ProteinSimple. The primary antibody for p100/p52 (Cell, Signaling #3017) is diluted 1:10 for use in the Jess system. The 12-230 kDa Jess Seperation Module capillary cartridges Separation Module (SM-W004) is used in conjunction with the Anti-Rabbit Secondary NIR conjugate (043-819). The Separation module includes prefilled plates that the samples, primary and secondary antibodies, as well as protein normalization reagent and diluents are loaded onto to perform separation and detection. Once the assay has run, the data is then analyzed utilizing the Compass software provided by ProteinSimple.
Alternatively to capillary electrophoresis, traditional immunoblot assays were carried out, 10 μg of cell lysate was loaded per well into 4-20% Tris-Glycine SDS-PAGE gels. Protein from the SDS-PAGE gels were transferred to Turbo Midi PVDF Transfer Packs (BioRad) using the “Mixed MW” protocol for one Midi Format Gel (constant 2.5 A up to 25V, for 7 minutes) of the Trans-Blot Turbo Transfer System (Bio-Rad) with premade Trans-Blot per the manufacturer's instructions. After transfer, PVDF membranes were blocked in 5% bovine serum albumin (BSA) in 1×TBS (BioRad) with 0.1% Tween-20 for 1 hour at room temperature with gentle rocking. Primary antibodies were added and incubated overnight at 4° C. (anti-p100/p52, Cell Signaling Technology #3017, 1:1000; anti-Actin-HRP conjugate, Abcam #49900, 1:30,000). Following primary staining, the membrane washed three times with 1× Tris Buffered Saline (TBS)+0.1% TWEEN® 20 for 10 minutes each wash. After washing, the membrane was incubated in 5% BSA in 1×TBS+0.1% TWEEN® 20 with the appropriate secondary antibody for 2 hours at room temperature. Following secondary stain the membrane was washed twice for 10 minutes with 1×TBS+0.1% TWEEN® 20 followed by a 10-minute wash with 1×TBS. The membrane was then patted dry with filter paper and an image was captured of the undeveloped membrane on the ChemiDoc MP Imaging System using Image Lab software (BioRad). Sufficient ECL reagent (GE Healthcare) was used to cover the membrane and a series of images were taken starting with 0.001 second and doubling to tripling the exposure time until the luminescence from the developed membrane saturated the image. […]

[2] = target: Jurkat HIV-luciferase clones; experiment: Jurkat latency reversal assay; assay type: cell-based; conditions: Table 4 summary, read-out: Jurkat EC50
Procedure, shortened: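 Three pooled Jurkat HIV-luciferase clones (C16, I15, N6; 5,000 cells/well, maintained with 500 nM EFV) exposed to 3-fold, 14-point titrations (10 μM to 2.1 pM, 0.5% DMSO) in duplicate for 48 h at 37 °C. Luciferase luminescence read; EC50 and maximal % activation versus vehicle from four-parameter logistic fit.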

SMILES | EC50 [1] | EC50 [2] | EC50 ([1]; Homo sapiens) | EC50 ([2]; Homo sapiens, Jurkat, 48 h)
CN[C@H](C)C(=O)N[C@@H](C(=O)N1CCC[C@@H]1C(=O)N[C@@H]1c2ccccc2C[C@@H]1OCC#CC#CCO[C@@H]1Cc2ccccc2[C@H]1NC(=O)[C@H]1CCCN1C(=O)[C@H](NC(=O)[C@@H](C)NC)C1CCCCC1)C1CCCCC1 [AZD5582, reference compound] | 63 nM | 8 nM | – | –
CC[C@H](NC(=O)[C@H](C)NC)C(=O)N1C[C@@H](O)C[C@H]1Cc1c(-c2[nH]c3cc(F)ccc3c2C[C@@H]2C[C@H](O)CN2C(=O)[C@H](CC)NC(=O)[C@H](C)NC)[nH]c2cc(F)ccc12 [Birinapant, reference compound] | – | – | 1000 nM | 200 nM
CN[C@H](C)C(=O)N[C@@H]1CCS[C@@H]2CC(C)(C)C(C(=O)N[C@@H]3CCCc4ccccc43)N2C1=O (stereo partly drawn) [SBI-0637142] | 100 to 1000 nM | 1 nM | – | –

Reference: patent US11492361B2, “Compounds useful in HIV therapy” (GlaxoSmithKline Intellectual Property Development Limited, priority 2018, dated 2022)
